Data reported in patent publication US20120122727A1, “IN VITRO METHOD FOR PREDICTING WHETHER A COMPOUND IS GENOTOXIC IN VIVO” (priority 2009, published 2012).

System: primary mouse hepatocytes
Assay: Gene expression (Affymetrix Mouse Genome 430 2.0) in primary mouse hepatocytes, true vs false GTX, 24 h and 48 h
Conditions: log2, corrected for vehicle control

Question: Which results are given for `Nc1ccc([N+](=O)[O-])cc1N` [4-NP, 4-Nitro-o-phenylenediamine]?
Answer: Gene expression data AF000969 (Cadps2) (24 h average): −0.6839; Gene expression data AF022072 (Grb10) (24 h average): 0.8486; Gene expression data AF065917 (Lif) (24 h average): −0.4573; Gene expression data AF204959 (Cyp3a25 /// LOC622249) (24 h average): −2.025; Gene expression data AF297615 (Ggta1) (24 h average): −0.2797; Gene expression data AI594683 (Dmn) (24 h average): −0.3517; Gene expression data AI596632 (Ptprg /// LOC632664) (24 h average): −0.4962; Gene expression data AI987929 (Ndrg1) (24 h average): 2.65; Gene expression data AK004419 (Fbxl17) (24 h average): −0.0775; Gene expression data AK005731 (1700007K13Rik) (24 h average): −0.5111; Gene expression data AK007766 (1810044A24Rik) (24 h average): −0.1697; Gene expression data AK007854 (1810053B23Rik) (24 h average): −1.736; Gene expression data AK009736 (Gpr137b /// LOC664862 /// LOC673335) (24 h average): 1.582; Gene expression data AK010447 (Smyd3) (24 h average): 0.4967; Gene expression data AK014608 (4632434l11Rik) (24 h average): 0.2958; Gene expression data AK019979 (2610528E23Rik) (24 h average): 0.9384; Gene expression data AV095209 (Mthfd1l) (24 h average): 0.9072; Gene expression data AV141095 (1110033M05Rik) (24 h average): 0.1789; Gene expression data AV173571 (1700106N22Rik) (24 h average): −0.003133; Gene expression data AV219418 (Ldhb) (24 h average): −1.032; Gene expression data AV223474 (Zdhhc14) (24 h average): −0.08437; Gene expression data AV298304 (Homez) (24 h average): −0.5839; Gene expression data AV327248 (Zfp365 /// LOC674611) (24 h average): −0.08917; Gene expression data AV377066 (9130221J18Rik) (24 h average): −1.695; Gene expression data AW240761 (Tbc1d5) (24 h average): 0.02697; Gene expression data AW543460 (Pard3) (24 h average): 0.9127; Gene expression data AW543723 (24 h average): 0.6706; Gene expression data AW986246 (Maoa) (24 h average): 1.7055; Gene expression data BB027848 (4732466D17Rik) (24 h average): −1.7858; Gene expression data BB043558 (9230114K14Rik) (24 h average): −0.4159; Gene expression data BB275142 (AW456874) (24 h average): −0.4184; Gene expression data BB308836 (Ppm1l) (24 h average): 0.03763; Gene expression data BB318221 (Zdhhc14) (24 h average): 0.0942; Gene expression data BB463610 (4632434l11Rik) (24 h average): 0.2106; Gene expression data BB526605 (Mipol1) (24 h average): 1.641; Gene expression data BB770528 (Rai2) (24 h average): −1.122; Gene expression data BB821363 (Scfd2) (24 h average): −0.219; Gene expression data BC004827 (Psat1) (24 h average): 0.5395; Gene expression data BC008626 (Icam1) (24 h average): −2.248; Gene expression data BC010462 (BC010462) (24 h average): −0.8654; Gene expression data BC012247 (Dcxr) (24 h average): −1.5; Gene expression data BC012260 (Psmf1) (24 h average): 0.1189; Gene expression data BC015270 (Hist2h3c2) (24 h average): −0.7846; Gene expression data BC016073 (Cdkal1) (24 h average): 0.3627; Gene expression data BC016265 (Ube2e2) (24 h average): 0.03433; Gene expression data BC019882 (Acaa1b) (24 h average): −1.259; Gene expression data BC025501 (Aaas) (24 h average): −0.2167; Gene expression data BC025837 (Sbk1) (24 h average): −0.8181; Gene expression data BC025915 (Cova1) (24 h average): 0.3343; Gene expression data BC026422 (Tgm1) (24 h average): −0.8176; Gene expression data BF719766 (Thyn1) (24 h average): −0.2859; Gene expression data BG065754 (Ccng1) (24 h average): −0.2503; Gene expression data BG066903 (Kif16b) (24 h average): 1.005; Gene expression data BG069873 (Gnb1l) (24 h average): −0.1326; Gene expression data BG070887 (Gtdc1) (24 h average): 0.3432; Gene expression data BG076151 (Ppm1d) (24 h average): −0.2933; Gene expression data BG261907 (Large) (24 h average): 0.3643; Gene expression data BI651416 (Cdc42bpg) (24 h average): −0.0339; Gene expression data BI660702 (Ell3) (24 h average): −0.609; Gene expression data BM198879 (Ercc5) (24 h average): −0.3288; Gene expression data BM230508 (A030007D23Rik) (24 h average): −0.6065; Gene expression data NM_007987 (Fas) (24 h average): −1.231; Gene expression data NM_008522 (Ltf) (24 h average): −0.3018; Gene expression data NM_008576 (Abcc1) (24 h average): 1.696; Gene expression data NM_011176 (St14) (24 h average): −0.5717; Gene expression data NM_011316 (Saa4) (24 h average): −0.5909; Gene expression data NM_012006 (Acot1) (24 h average): −1.4501; Gene expression data NM_013866 (Zfp385) (24 h average): −0.2808; Gene expression data NM_018770 (Igsf4a) (24 h average): 0.3868; Gene expression data NM_021451 (Pmaip1) (24 h average): −1.505; Gene expression data NM_025770 (Atg10) (24 h average): 1.051; Gene expression data NM_028803 (Gbe1) (24 h average): 0.3633; Gene expression data NM_030697 (Ankrd47) (24 h average): 0.1816; Gene expression data NM_053168 (Trim11) (24 h average): −0.1598; Gene expression data NM_134188 (Acot2) (24 h average): −0.7637; Gene expression data Y15910 (Diap2) (24 h average): −0.5398; Gene expression AA561726 average (48 h): −0.08; Gene expression AF000969 average (48 h): −0.8202; Gene expression AF022072 average (48 h): 0.6062; Gene expression AF033112 average (48 h): 0.152; Gene expression AF055573 average (48 h): −0.1973; Gene expression AF069954 average (48 h): −0.4429; Gene expression AF297615 average (48 h): −1.352; Gene expression AF335325 average (48 h): 0.5071; Gene expression AI594683 average (48 h): −0.4763; Gene expression AI747296 average (48 h): −0.3288; Gene expression AK005731 average (48 h): −0.9581; Gene expression AK007854 average (48 h): −0.1411; Gene expression AK010447 average (48 h): 0.5956; Gene expression AK010738 average (48 h): −0.1569; Gene expression AK014608 average (48 h): −0.3072; Gene expression AK017734 average (48 h): −1.2326; Gene expression AK018383 average (48 h): −0.5006; Gene expression AK019979 average (48 h): 0.04087; Gene expression AV095209 average (48 h): 0.6413; Gene expression AV141095 average (48 h): −0.1051; Gene expression AV173869 average (48 h): 0.1411; Gene expression AV216768 average (48 h): −0.004067; Gene expression AV219418 average (48 h): 0.6295; Gene expression AV221299 average (48 h): 0.7477; Gene expression AV246296 average (48 h): −1.046; Gene expression AV251625 average (48 h): −0.1615; Gene expression AV254764 average (48 h): −0.4499; Gene expression AV327248 average (48 h): −0.01493; Gene expression BB009155 average (48 h): −0.6079; Gene expression BB027848 average (48 h): −1.954; Gene expression BB043558 average (48 h): −0.2736; Gene expression BB046347 average (48 h): −0.8045; Gene expression BB140436 average (48 h): 2.071; Gene expression BB204486 average (48 h): −0.0837; Gene expression BB223872 average (48 h): −0.6536; Gene expression BB246912 average (48 h): 0.3026; Gene expression BB275142 average (48 h): −0.1963; Gene expression BB458460 average (48 h): 0.1645; Gene expression BB463610 average (48 h): 0.03727; Gene expression BB730977 average (48 h): 0.992; Gene expression BB743970 average (48 h): −0.1636; Gene expression BB770528 average (48 h): −0.9985; Gene expression BB781615 average (48 h): −0.7501; Gene expression BC003284 average (48 h): −0.5876; Gene expression BC004827 average (48 h): −0.2247; Gene expression BC005552 average (48 h): 0.4521; Gene expression BC006713 average (48 h): −0.7469; Gene expression BC010318 average (48 h): 0.1861; Gene expression BC012247 average (48 h): −0.6355; Gene expression BC012955 average (48 h): 0.1051; Gene expression BC013893 average (48 h): −1.496; Gene expression BC017615 average (48 h): −1.535; Gene expression BC019379 average (48 h): −0.5665; Gene expression BC019882 average (48 h): −2.4942; Gene expression BC021352 average (48 h): −1.28; Gene expression BC022148 average (48 h): −1.1322; Gene expression BC025169 average (48 h): 0.3712; Gene expression BC026131 average (48 h): 0.2124; Gene expression BC027026 average (48 h): 0.05273; Gene expression BC027121 average (48 h): −0.2406; Gene expression BC027185 average (48 h): −1.382; Gene expression BE956581 average (48 h): 0.0346; Gene expression BF719766 average (48 h): −0.5024; Gene expression BG065754 average (48 h): −0.3381; Gene expression BG066491 average (48 h): −0.8219; Gene expression BG076151 average (48 h): −0.6573; Gene expression BG076333 average (48 h): 0.8731; Gene expression BG797099 average (48 h): −0.06697; Gene expression BG967046 average (48 h): −0.6324; Gene expression BI651416 average (48 h): −0.02873; Gene expression BI966443 average (48 h): 0.2259; Gene expression BM198879 average (48 h): −0.4213; Gene expression BM200015 average (48 h): −0.4429; Gene expression BM230508 average (48 h): −0.9731; Gene expression BM936480 average (48 h): −0.412; Gene expression BQ174991 average (48 h): 0.4017; Gene expression L21027 average (48 h): −0.03073; Gene expression NM_007556 average (48 h): 0.4274; Gene expression NM_007980 average (48 h): −1.581; Gene expression NM_007987 average (48 h): −0.8469; Gene expression NM_008522 average (48 h): −0.2393; Gene expression NM_008935 average (48 h): −1.002; Gene expression NM_009897 average (48 h): −0.01903; Gene expression NM_011075 average (48 h): −1.008; Gene expression NM_011176 average (48 h): −1.635; Gene expression NM_011316 average (48 h): −0.9295; Gene expression NM_012006 average (48 h): −0.006733; Gene expression NM_013642 average (48 h): 1.007; Gene expression NM_013738 average (48 h): −1.171; Gene expression NM_013929 average (48 h): 0.1753; Gene expression NM_018881 average (48 h): −0.2965; Gene expression NM_019738 average (48 h): −1.132; Gene expression NM_030697 average (48 h): −0.3339; Gene expression NM_053122 average (48 h): −0.09647; Gene expression NM_134147 average (48 h): 0.01433; Gene expression NM_134188 average (48 h): −0.4402; Gene expression X62701 average (48 h): 0.7376
